# Data reported in patent US5659049A, “Antioxidant, antiphospholipase derivatives of ricinoleic acid” (Virginia Commonwealth University, priority 1995, dated 1997).
# System: N. naja cobra venom phospholipase
# Test: In vitro inhibition of N. naja cobra venom phospholipase (FIG. 8)
# Assay type: biochemical
structure (smiles),measurement,value
"CCCCCCC(C/C=C\CCCCCCCC(=O)O)OC(=O)CCCCCCCCC(=O)O (stereo not shown) [RISE-1, Ricinoleic Acid Sebacyl Ester]",Inhibition of N. naja cobra venom phospholipase,"dose related, selective in vitro inhibition"
